These results are taken from ChEMBL document CHEMBL1909492, “Discovery of 1-arylcarbonyl-6,7-dimethoxyisoquinoline derivatives as glutamine fructose-6-phosphate amidotransferase (GFAT) inhibitors” (Bioorg Med Chem Lett, 2011).

Data set [1] can be described thus: Inhibition of GFAT-beta expressed in COS cells using […] as substrate.
Data set [2] deals with T1, Glutamine--fructose-6-phosphate aminotransferase [isomerizing] 1 (Homo sapiens, UniProt Q06210). Nature of the data set: Inhibition of GFAT using […] as substrate.
Data set [3] is described as follows: Photo-degradation of compound in DMSO at 1 mM after 2 hrs by HPLC/UV spectrophotometric analysis. It counts as physicochemical. The following applies: read-out: Activity.
For data set [4], the target named is T1, Glutamine--fructose-6-phosphate aminotransferase [isomerizing] 1. The data set can be described thus: Irreversible inhibition of GFAT.
For data set [5] the target is unchanged. The data set can be described thus: Reversible inhibition of GFAT.
Data set [6] has the same target. The data set can be described thus: Noncompetitive inhibition of GFAT in presence of fructose-6-phosphate.
Data set [7] shares this target. Nature of the data set: Competitive inhibition of GFAT in presence of glutamine.
Data set [8] in a line: Solubility of the compound at pH 6.4. It counts as physicochemical. The following applies: buffer.
A short description of data set [9]: Lipophilicity, log D of the compound at pH 7.2. The data set is classed as physicochemical. The following applies: buffer.
Data set [10] in a line: Apparent permeability across human Caco2 cell membrane. The data set is classed as ADME, cell-based. The following applies: Caco-2.
A short description of data set [11]: Half life in rat at 10 mg/kg, iv. The following applies: in vivo. It counts as ADME, organism-based. Details: dose 10 mg/kg, route intravenous.
The nature of data set [12]: AUC in rat at 10 mg/kg, iv. It counts as ADME, organism-based. More on the design: dose 10 mg/kg, route intravenous. The following applies: plasma.
The nature of data set [13]: Volume of distribution in rat at 10 mg/kg, iv. The following applies: in vivo. Details: dose 10 mg/kg, route intravenous. It counts as ADME, organism-based.
Data set [14] can be described thus: Clearance in rat at 10 mg/kg, iv. The following applies: in vivo. More on the design: dose 10 mg/kg, route intravenous. It counts as ADME, organism-based.
A short description of data set [15]: Tmax in rat at 50 mg/kg, po. The data set is classed as ADME, organism-based. More on the design: dose 50 mg/kg, route oral. The following applies: in vivo.
Data set [16] can be described thus: AUC in rat at 50 mg/kg, po. It counts as ADME, organism-based. More on the design: dose 50 mg/kg, route oral. The following applies: plasma.
Data set [17] is described as follows: Cmax in rat at 50 mg/kg, po. The following applies: in vivo. Details: dose 50 mg/kg, route oral. The data set is classed as ADME, organism-based.
A short description of data set [18]: Oral bioavailability in rat at 50 mg/kg. The following applies: in vivo. The data set is classed as ADME, organism-based.
For data set [19], the system named is Mus musculus. The data set can be described thus: Antidiabetic activity in fasted ob/ob mouse assessed as deduction of glucose excursion at 50 mg/kg, po at 4 hr and 1 hr prior to oral glucose challenge by oral glucose tolerance test. It counts as functional, organism-based. Details: dose 50 mg/kg.
The test system of data set [20] is Mus musculus. Nature of the data set: Antidiabetic activity in […] ob/ob mouse assessed decrease of glucose AUC at 50 mg/kg, po at 4 hr and 1 hr prior to oral glucose challenge by oral glucose tolerance test relative to control. It counts as functional. More on the design: scale not given: the % may be the effect or the level left.
Data set [21] is described as follows: Photo-degradation of compound in DMSO at 1 mM after 2 hrs by LC/MS analysis. It counts as physicochemical. The following applies: read-out: Activity.
The nature of data set [22]: Photo-degradation of compound in DMSO exposed to daylight at 1 mM after 24 hrs by HPLC analysis. The data set is classed as physicochemical. The following applies: 1000 µM.
Data set [23] can be described thus: Photo-degradation of compound in solid state over years by HPLC analysis. It counts as physicochemical.

≈ marks a conversion by molar mass, not a printed value. Calls of active or inactive are those of the source. The calls are words filed in the database; no cut-off is given here.

T1 sequence (Q06210 whole entry): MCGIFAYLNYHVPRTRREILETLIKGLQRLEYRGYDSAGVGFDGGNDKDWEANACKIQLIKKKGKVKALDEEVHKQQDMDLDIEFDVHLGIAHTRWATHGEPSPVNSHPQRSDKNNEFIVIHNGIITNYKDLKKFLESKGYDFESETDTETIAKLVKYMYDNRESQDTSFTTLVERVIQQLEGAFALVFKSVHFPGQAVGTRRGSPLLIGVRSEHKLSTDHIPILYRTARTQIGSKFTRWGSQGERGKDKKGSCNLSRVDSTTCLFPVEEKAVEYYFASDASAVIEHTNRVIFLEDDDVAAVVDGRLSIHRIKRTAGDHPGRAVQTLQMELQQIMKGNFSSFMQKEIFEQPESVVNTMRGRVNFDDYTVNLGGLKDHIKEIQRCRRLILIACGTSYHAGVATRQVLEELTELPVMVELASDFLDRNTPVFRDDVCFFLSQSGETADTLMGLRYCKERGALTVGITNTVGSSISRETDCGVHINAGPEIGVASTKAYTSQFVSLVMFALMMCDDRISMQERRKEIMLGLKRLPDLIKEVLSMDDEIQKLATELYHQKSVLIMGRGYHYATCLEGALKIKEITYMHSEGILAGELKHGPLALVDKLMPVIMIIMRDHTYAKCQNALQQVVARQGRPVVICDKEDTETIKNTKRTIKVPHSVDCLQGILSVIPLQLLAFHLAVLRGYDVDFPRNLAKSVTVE

As to `COc1cc2c(CC(=O)O)cnc(C(=O)c3cc(OC(C)C)ccc3F)c2cc1OC`, the IC50 – broadly, the concentration that gives 50% inhibition – in data set [1] worked out at 1.9 µM.
In turn, `COc1cc2ccnc3c2c(c1OC)NC=C3` [AAPTAMINE] gave an IC50 in data set [2] of 120 µM.
As to `COc1cc2c(C(=O)O)cnc(C(=O)c3cccc(OC(C)C)c3)c2cc1OC`, in data set [1], inhibition was half-maximal at 0.72 µM (IC50). Moreover, in [3], the degraded at 2 h, 1000 µM came out at 75.9%.
With `COc1cc2c(CNC(C)=O)cnc(C(=O)c3cccc(OC(C)C)c3)c2cc1OC`, the half-maximal inhibitory concentration (IC50) in [1] was 1.1 µM.
For `COC(=O)/C=C/C(=O)NC[C@H](N)C(=O)O`, the IC50 in [4] was 0.4 µM.
Consider `COc1cc2c(C(=O)O)cnc(C(=O)c3cc(OC(C)C)ccc3F)c2cc1OC`, for which, in [1], 2.5 µM corresponded to half-maximal inhibition (IC50). Moreover, the degraded at 2 h, 1000 µM in data set [3] was 22%.
Molecule `COc1cccc(C(=O)c2ncc(C(=O)O)c3cc(OC)c(OC)cc23)c1` had a half-maximal inhibitory concentration (IC50) in data set [1] of 1.2 µM.
On to `COc1cc2c(C(=O)O)cnc(C(=O)c3ccccc3)c2cc1OC`, for which the IC50 in [1] came to 10 µM.
Same read-out and setting: in the case of `COc1cccc(C(=O)c2ncc(C(=O)O)c3cc(O)c(OC)cc23)c1` it was over 100 µM.
Molecule `COc1cc2c(C(=O)O)cnc(C(=O)c3c(F)cccc3F)c2cc1OC` had a half-inhibitory concentration (IC50) in data set [1] of 9.93 µM. In [5], the inhibition entry is “Active”. In [3], the degraded at 2 h, 1000 µM stood at 0%.
In [1], `COc1ccc(Cc2ncc(C(=O)O)c3cc(OC)c(OC)cc23)cc1OC` displayed a concentration for half-maximal inhibition (IC50) of over 100 µM.
Take `COc1ccc(F)c(C(=O)c2ncc(CNS(=O)(=O)C(F)(F)F)c3cc(OC)c(OC)cc23)c1`: the concentration for half-maximal inhibition (IC50) in [1] amounted to 0.68 µM.
`COc1cc2c(CNS(=O)(=O)C(F)(F)F)cnc(C(=O)c3cccc(OC(C)C)c3)c2cc1OC` yielded a 50% inhibitory concentration (IC50) in [1] of 1 µM. The inhibition constant Ki in [6] and in data set [7] was 0.3 µM in each case. Also, the inhibition result in [5] was “Active”. In data set [8], the solubility (commonly how much of the substance goes into solution per volume) came to 3 µg/mL (≈ 5.85 µM). Also, the logD (as a rule, the decadic logarithm of the distribution of all forms, ionised or not, between an organic phase and buffer at a given pH) in data set [9] stood at 2.89. In addition, the Papp – broadly, the rate of passage across a membrane or cell layer, normalised by area and donor concentration – in data set [10] came to 357 nm/s. Further, in data set [11], the half-life (usually the time in which the quantity being followed falls by half) was 1.68 h. Further, the AUC (usually concentration integrated over time) is 52.3 µg·h/mL in [12] and 239 µg·h/mL in data set [16]. The Vd (commonly a proportionality between amount in the body and measured concentration, not a real space) in data set [13] was determined as 0.4 L/kg. Further, in [14], the clearance (commonly the rate of elimination divided by the concentration) was 0.192 L/h/kg. The time of peak concentration (Tmax) (usually the time from dosing to the highest level) in data set [15] was found to be 1 h. The highest concentration (Cmax) (as a rule, the peak of the concentration-time curve) in data set [17] was 112 µM. Also, the bioavailability (commonly dose-corrected exposure relative to a reference, in per cent) in data set [18] is 91%. The result in the data set with Mus musculus [19] was Active. In the data set with Mus musculus [20], this molecule yielded an Activity of over 35%. Further, the degraded at 2 h, 1000 µM in [21] is 30%. The Stability result in data set [22] and in [23] was “Stable” each time.
In data set [1], `COc1cccc(C(=O)c2ncc(C(=O)O)c3ccccc23)c1` gave an IC50 of over 100 µM.
In [1], `COc1ccc(C(=O)c2ncc(C(=O)O)c3cc(OC)c(OC)cc23)cc1OC` came in with a 50% inhibitory concentration (IC50) of 20 µM.
As to `CCOc1cccc(C(=O)c2ncc(C(=O)O)c3cc(OC)c(OC)cc23)c1`, in [1], the IC50 stood at 0.83 µM.
As to `COc1ccc(F)c(C(=O)c2ncc(C(=O)O)c3cc(OC)c(OC)cc23)c1`, the 50% inhibitory concentration (IC50) in data set [1] was 0.87 µM. For the same molecule, in data set [3], the degraded at 2 h, 1000 µM was found to be 25.4%.
As for `COc1cc2c(CN3C(=O)CSC3=O)cnc(C(=O)c3cccc(OC(C)C)c3)c2cc1OC`, it took 0.82 µM to reach half-maximal inhibition in [1] (IC50).
On to `COc1ccc(C(=O)c2ncc(C(=O)O)c3cc(OC)c(OC)cc23)cc1`, for which, in [1], the IC50 was over 100 µM.
With `N[C@@H](CNC(=O)CBr)C(=O)O`, the IC50 in data set [4] amounted to 0.15 µM.
Consider `COc1cccc(NC(=O)c2ncc(C(=O)O)c3cc(OC)c(OC)cc23)c1`, for which the 50% inhibitory concentration (IC50) in data set [1] is over 100 µM.
On the same count and under the same terms, the figure for `COc1cc2c(CNS(=O)(=O)C(F)(F)F)cnc(C(=O)c3c(F)cccc3F)c2cc1OC` is 4.33 µM; for `COc1cc2c(Cn3oc(=O)[nH]c3=O)cnc(C(=O)c3cccc(OC(C)C)c3)c2cc1OC` it is 0.58 µM; for `COc1cc2c(C(=O)O)cnc(C(=O)c3c(F)ccc(OC(C)C)c3F)c2cc1OC` it is 0.9 µM.
Take `COc1cc2c(CNS(C)(=O)=O)cnc(C(=O)c3cccc(OC(C)C)c3)c2cc1OC`: in [1], the concentration for half-maximal inhibition (IC50) came to 0.9 µM.
Same read-out and setting: in the case of `COc1cccc(C(O)c2ncc(C(=O)O)c3cc(OC)c(OC)cc23)c1` (centres undefined) it was over 100 µM; in that of `COc1cc2c(C(=O)O)cnc(C(=O)c3c(F)ccc(OC)c3F)c2cc1OC`, 0.94 µM.
Same read-out and setting: in the case of `COc1cccc(C(=O)c2ncc(C(=O)O)c3ccc(OC)cc23)c1` it was over 100 µM.
In data set [1], `COc1cccc(C(=O)c2ncc(C(=O)O)c3cc(OC)ccc23)c1` displayed an IC50 of over 100 µM.
Take `CCOc1cccc(C(=O)c2ncc(-c3nn[nH]n3)c3cc(OC)c(OC)cc23)c1`: 0.8 µM corresponded to half-maximal inhibition in data set [1] (IC50).
